Measured values from ChEMBL document CHEMBL3621197, “Design, synthesis, and preliminary bioactivity studies of substituted purine hydroxamic acid derivatives as novel histone deacetylase (HDAC) inhibitors” (Medchemcomm, 2014).

Experiments:
[1] = biological target: T1, Histone deacetylase (HDAC1 and HDAC2) (Homo sapiens, UniProt Q13547+Q92769); conditions: HeLa, at 5 µM
Description: Inhibition of HDAC1/HDAC2 isolated from human HeLa cells at 5 umol/L incubated for 30 mins by Color de Lys assay

cells [2] = format: functional, cell-based; conditions: Homo sapiens, KG-1, 48 h
Description: Cytotoxicity against human KG1 cells assessed as inhibition of cell proliferation after 48 hrs by MTT assay

MCF7 = assay: cells; format: functional, cell-based; conditions: Homo sapiens, MCF7, 48 h
Description: Cytotoxicity against human MCF7 cells assessed as inhibition of cell proliferation after 48 hrs by MTT assay

MDA-MB-231 = assay: cells; format: functional, cell-based; conditions: Homo sapiens, MDA-MB-231, 48 h
Description: Cytotoxicity against human MDA-MB-231 cells assessed as inhibition of cell proliferation after 48 hrs by MTT assay

[3] = biological target: T1, Histone deacetylase (HDAC1 and HDAC2); assay: Inhibition of HDAC1/HDAC2 isolated from human HeLa cells incubated for 30 mins by Color de Lys assay; format: cell-based
Histone deacetylase 1 = Histone deacetylase 1 (Homo sapiens, UniProt Q13547); assay: Inhibition of recombinant full length human HDAC1 (1 to 482 amino acids) expressed in Baculovirus infected insect Sf9 cells incubated for 30 mins measured by fluorescence assay
Histone deacetylase 8 = biological target: T2, Histone deacetylase 8 (Homo sapiens, UniProt Q9BY41); assay: Inhibition of recombinant full length human HDAC8 expressed in Baculovirus infected insect Sf9 cells preincubated for 30 mins followed by substrate addition measured after 15 to 45 mins by luminescence assay
T2 sequence (Q9BY41 whole entry): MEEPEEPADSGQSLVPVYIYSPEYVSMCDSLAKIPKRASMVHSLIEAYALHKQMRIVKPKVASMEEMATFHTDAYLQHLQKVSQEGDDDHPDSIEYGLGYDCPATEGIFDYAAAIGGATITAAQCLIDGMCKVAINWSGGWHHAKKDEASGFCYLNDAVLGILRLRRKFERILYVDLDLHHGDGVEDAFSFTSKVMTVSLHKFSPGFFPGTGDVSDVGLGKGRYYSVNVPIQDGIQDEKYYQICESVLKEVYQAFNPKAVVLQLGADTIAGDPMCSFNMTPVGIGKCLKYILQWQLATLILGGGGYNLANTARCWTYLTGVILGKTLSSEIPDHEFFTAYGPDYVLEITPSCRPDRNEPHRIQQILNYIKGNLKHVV

HeLa = assay: cells; format: functional, cell-based; conditions: Homo sapiens, 48 h
Description: Cytotoxicity against human HeLa cells assessed as inhibition of cell proliferation after 48 hrs by MTT assay

U-937 = assay: cells; format: functional, cell-based; conditions: Homo sapiens, U-937, 48 h
Description: Cytotoxicity against human U937 cells assessed as inhibition of cell proliferation after 48 hrs by MTT assay

PC-3 = assay: cells; format: functional, cell-based; conditions: Homo sapiens, PC-3, 48 h
Description: Cytotoxicity against human PC3 cells assessed as inhibition of cell proliferation after 48 hrs by MTT assay

A549 = assay: cells; format: functional, cell-based; conditions: Homo sapiens, A549, 48 h
Description: Cytotoxicity against human A549 cells assessed as inhibition of cell proliferation after 48 hrs by MTT assay

cells [4] = format: functional, cell-based, ES2; conditions: Homo sapiens, ES-2, 48 h
Description: Cytotoxicity against human ES2 cells assessed as inhibition of cell proliferation after 48 hrs by MTT assay

[5] = biological target: T3, Protein deacetylase HDAC6 (Homo sapiens, UniProt Q9UBN7); assay: Inhibition of recombinant full length human HDAC6 expressed in Baculovirus infected insect Sf9 cells incubated for 30 mins measured by fluorescence assay
T3 sequence (Q9UBN7 whole entry): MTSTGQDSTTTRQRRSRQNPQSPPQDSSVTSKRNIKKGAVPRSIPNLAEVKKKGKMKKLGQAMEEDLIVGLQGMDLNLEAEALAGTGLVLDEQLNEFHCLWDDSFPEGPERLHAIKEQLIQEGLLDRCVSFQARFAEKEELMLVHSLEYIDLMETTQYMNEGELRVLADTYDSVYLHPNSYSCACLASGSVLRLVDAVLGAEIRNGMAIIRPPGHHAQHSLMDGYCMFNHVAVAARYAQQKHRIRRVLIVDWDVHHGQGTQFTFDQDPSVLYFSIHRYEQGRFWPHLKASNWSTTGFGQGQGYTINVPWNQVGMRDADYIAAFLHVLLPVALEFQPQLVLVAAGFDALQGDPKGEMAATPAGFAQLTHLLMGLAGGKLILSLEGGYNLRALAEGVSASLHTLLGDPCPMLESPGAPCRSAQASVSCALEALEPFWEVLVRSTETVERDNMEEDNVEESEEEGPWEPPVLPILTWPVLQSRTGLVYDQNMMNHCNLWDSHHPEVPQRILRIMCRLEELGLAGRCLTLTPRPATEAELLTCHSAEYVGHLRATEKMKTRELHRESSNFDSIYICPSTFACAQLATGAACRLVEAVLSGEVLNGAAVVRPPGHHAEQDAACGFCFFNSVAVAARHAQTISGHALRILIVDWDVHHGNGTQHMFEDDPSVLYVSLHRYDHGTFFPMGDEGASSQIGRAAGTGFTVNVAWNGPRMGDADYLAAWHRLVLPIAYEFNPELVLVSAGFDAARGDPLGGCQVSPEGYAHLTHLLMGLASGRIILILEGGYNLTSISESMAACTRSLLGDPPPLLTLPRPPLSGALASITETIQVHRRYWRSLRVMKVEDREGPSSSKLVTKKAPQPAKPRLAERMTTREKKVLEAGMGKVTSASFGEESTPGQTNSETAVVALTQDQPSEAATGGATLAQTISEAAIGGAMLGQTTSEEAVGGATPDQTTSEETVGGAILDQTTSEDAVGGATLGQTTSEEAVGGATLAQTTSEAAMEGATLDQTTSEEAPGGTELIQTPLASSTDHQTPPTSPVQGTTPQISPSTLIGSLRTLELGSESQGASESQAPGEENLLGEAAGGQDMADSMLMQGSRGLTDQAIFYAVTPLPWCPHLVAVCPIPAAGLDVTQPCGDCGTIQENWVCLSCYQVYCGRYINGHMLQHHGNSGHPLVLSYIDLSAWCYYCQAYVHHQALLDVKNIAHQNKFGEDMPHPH

Histone deacetylase 1, sequence (Q13547 whole entry, the tested form may be a part): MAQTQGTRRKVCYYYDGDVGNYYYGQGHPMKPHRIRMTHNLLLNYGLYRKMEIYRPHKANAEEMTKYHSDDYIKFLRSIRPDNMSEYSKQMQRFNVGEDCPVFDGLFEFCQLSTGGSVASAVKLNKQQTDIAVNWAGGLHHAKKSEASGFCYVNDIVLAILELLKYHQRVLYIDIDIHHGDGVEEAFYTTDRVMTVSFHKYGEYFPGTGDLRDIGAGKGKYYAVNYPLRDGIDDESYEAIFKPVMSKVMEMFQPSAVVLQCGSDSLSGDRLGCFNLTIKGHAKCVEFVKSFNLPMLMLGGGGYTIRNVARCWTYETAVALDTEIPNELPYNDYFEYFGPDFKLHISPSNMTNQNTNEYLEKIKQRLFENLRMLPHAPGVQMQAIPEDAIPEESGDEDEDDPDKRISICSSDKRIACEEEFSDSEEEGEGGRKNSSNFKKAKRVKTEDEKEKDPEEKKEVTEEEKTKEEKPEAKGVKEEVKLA
T1 sequence (Q13547 whole entry, looked up): as the sequence (Q13547 whole entry, the tested form may be a part) above
T1 sequence (Q92769 whole entry, looked up): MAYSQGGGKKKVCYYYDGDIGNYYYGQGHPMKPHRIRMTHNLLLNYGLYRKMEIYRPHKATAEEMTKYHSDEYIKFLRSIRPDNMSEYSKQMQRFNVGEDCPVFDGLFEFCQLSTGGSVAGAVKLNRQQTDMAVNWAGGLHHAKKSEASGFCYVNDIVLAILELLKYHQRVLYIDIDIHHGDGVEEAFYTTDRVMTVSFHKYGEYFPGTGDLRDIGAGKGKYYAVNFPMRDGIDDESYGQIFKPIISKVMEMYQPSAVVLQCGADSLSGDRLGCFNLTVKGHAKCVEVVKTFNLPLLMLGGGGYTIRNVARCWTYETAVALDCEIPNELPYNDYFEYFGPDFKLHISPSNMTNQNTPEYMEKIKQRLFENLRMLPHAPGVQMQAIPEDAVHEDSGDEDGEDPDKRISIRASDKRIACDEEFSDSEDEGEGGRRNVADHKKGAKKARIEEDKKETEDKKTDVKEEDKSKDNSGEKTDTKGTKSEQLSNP

Compound	inhibition [1] [%]	IC50 (cells [2]) [µM]	IC50 (MCF7) [µM]	IC50 (MDA-MB-231) [µM]	IC50 [3] [µM]	further results
CNc1ncnc2c1ncn2CC(=O)NCC(=O)NO	3	–	–	–	–	–
Nc1nc(N2CCOCC2)c2ncn(CC(=O)NCCCCCC(=O)NO)c2n1	53	–	> 50	41.3	4.53	–
O=C(Cc1ccc(NC(=O)Cn2cnc3c(N4CCOCC4)ncnc32)cc1)NO	25	–	–	–	–	–
O=C(CCCCCNC(=O)Cn1cnc2c(Nc3ccccc3)nc(Nc3ccccc3)nc21)NO	80	3.8	9.58	1.61	0.3	IC50 (Histone deacetylase 1): 0.028 µM; IC50 (Histone deacetylase 8): 0.2 µM; IC50 (HeLa): 9.08 µM; IC50 (U-937): 4.07 µM; IC50 (PC-3): 2.14 µM; IC50 (A549): 18 µM; IC50 (cells [4]): 13.4 µM; IC50 [5]: 0.0038 µM
CNc1ncnc2c1ncn2CC(=O)NCCCC(=O)NO	6	–	–	–	–	–
O=C(CCNC(=O)Cn1cnc2c(N3CCOCC3)ncnc21)NO	3	–	–	–	–	–
O=C(CCCNC(=O)Cn1cnc2c(N3CCOCC3)nc(Nc3ccccc3)nc21)NO	69	–	–	–	> 5	–
O=C(CCCCNC(=O)Cn1cnc2c(Nc3ccccc3)nc(Nc3ccccc3)nc21)NO	87	34.7	> 50	11.1	0.59	–
Nc1nc(N2CCOCC2)c2ncn(CC(=O)NCCCC(=O)NO)c2n1	-1	–	–	–	–	–
O=C(CCCCCNC(=O)Cn1cnc2c(N3CCOCC3)ncnc21)NO	49	–	–	–	> 5	–
O=C(CCCCCNC(=O)Cn1cnc2c(NCc3ccccc3)ncnc21)NO	70	> 50	> 50	34.2	2.05	–
O=C(CCCCCNC(=O)Cn1cnc2c(N3CCOCC3)nc(Nc3ccccc3)nc21)NO	98	5.37	18.6	1.56	0.075	IC50 (Histone deacetylase 1): 0.035 µM; IC50 (Histone deacetylase 8): 0.15 µM; IC50 (HeLa): 18.2 µM; IC50 (U-937): 6.5 µM; IC50 (PC-3): 6.44 µM; IC50 (A549): 46.1 µM; IC50 (cells [4]): 28 µM; IC50 [5]: 0.0026 µM
O=C(CCCNC(=O)Cn1cnc2c(N3CCOCC3)ncnc21)NO	15	–	–	–	–	–
O=C(CCCCCCNC(=O)Cn1cnc2c(Nc3ccccc3)ncnc21)NO	49	> 50	> 50	8.91	2.94	–

Continued, in another order:

inhibition [1] [%]	IC50 (cells [2]) [µM]	IC50 (MCF7) [µM]	IC50 (MDA-MB-231) [µM]	IC50 [3] [µM]	Compound	further results
72	> 50	> 50	22.3	2.09	O=C(CCCCCNC(=O)Cn1cnc2c(Nc3ccccc3)ncnc21)NO	–
13	–	–	–	–	O=C(CCNC(=O)Cn1cnc2c(NCc3ccccc3)ncnc21)NO	–
3	–	–	–	–	O=C(CNC(=O)Cn1cnc2c(NCc3ccccc3)ncnc21)NO	–
56	–	–	–	> 5	O=C(CCNC(=O)Cn1cnc2c(N3CCOCC3)nc(Nc3ccccc3)nc21)NO	–
20	–	–	–	–	Nc1nc(N2CCOCC2)c2ncn(CC(=O)NCCC(=O)NO)c2n1	–
11	–	–	–	–	O=C(CCCNC(=O)Cn1cnc2c(NCc3ccccc3)ncnc21)NO	–
0	–	–	–	–	Nc1nc(N2CCOCC2)c2ncn(CC(=O)Nc3ccc(CC(=O)NO)cc3)c2n1	–
95	2.88	9.04	1.55	0.51	O=C(CCCCCCNC(=O)Cn1cnc2c(Nc3ccccc3)nc(Nc3ccccc3)nc21)NO	IC50 (Histone deacetylase 1): 0.063 µM; IC50 (Histone deacetylase 8): 0.32 µM; IC50 (HeLa): 8.76 µM; IC50 (U-937): 3.91 µM; IC50 (PC-3): 4.26 µM; IC50 (A549): 10.1 µM; IC50 (cells [4]): 8.95 µM; IC50 [5]: 0.0018 µM
10	–	–	–	–	CNc1ncnc2c1ncn2CC(=O)NCCC(=O)NO	–
59	> 50	> 50	> 50	2.51	O=C(CCCCNC(=O)Cn1cnc2c(Nc3ccccc3)ncnc21)NO	–
